Columns and labels:
[1] = system: Staphylococcus aureus Strain Wood 46 in human polymorphonuclear leucocytes; assay: in vitro test on human polymorphonuclear leucocytes and Staphylococcus aureus Strain Wood 46; format: cell-based; settings: S. aureus Strain Wood 46
From the text: In the in vitro test on human polymorphonuclear leucocytes and Staphylococcus aureus Strain Wood 46, sorangicin A is effective against bacteria that occur intracellularly, e.g. staphylococcae.

[2] = biological target: T1, reverse transcriptase of Moloney Murine leucaemia virus (Moloney murine leukemia virus, UniProt P03355); assay: inhibition of reverse transcriptase enzyme; format: biochemical; settings: reverse transcriptase of MLV; method of Wu et al.; read-out: ID50 (dose that inhibits the RT activity by 50%) (converted)
T1 construct: reverse transcriptase of Moloney Murine leucaemia virus
Method: Proof of the antiviral activity of the compounds of formula I against retroviruses is shown by in vitro and in vivo tests, but especially by an in vitro test system in which the inhibition of the reverse transcriptase enzyme is determined quantitatively by said compounds.
On poly A-oligo (dT), radioactively labelled TPP is hybridised with reverse transcriptase. The […] radioactivity is measured and serves as reference for the activity of the reverse transcriptase.
The ID50 of the compounds of formula I is determined by using them in the test system in different concentrations.
Sorangicin A is active against reverse transcriptase of Moloney Murine leucaemia virus; the ID50 [dose that inhibits the RT activity by 50%; method of Wu et al., Proc. Natl. Acad. Sci., 69, 3820 (1972)] for the reverse transcriptase of MLV is c. 7 μg/ml.

## CC(=CC(C)CCCCC(=O)O)C1OC2C=CC1OC(=O)C=CC=CC=CC1OC3CC1OC(C=CCC1OC(CC(O)C1C)C(O)C(O)C=CCCC=CC2)C3C (stereo not drawn) [sorangicin A]
[1]
  activity against bacteria that occur intracellularly: effective
  activity within leucocytes: bactericidal activity
[2]
  IC50: ~8.67 µM
